Measured values published in PubChem BioAssay (NCI).
Where “and” joins values, the source holds several entries; their conditions need not be identical. Equal values may be shown once.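 Dose response: 5 concentrations. Exposure: 48 h. Format: 96-well plates. Endpoint: linear interpolation; highest concentration if not reached. Here, GI50 denotes the concentration required for 50% inhibition of growth. TGI: concentration producing complete growth inhibition.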

Experiments:
Assay in all cases: NCI-60 cell line screen, 48 h
LXFL 529 NSCLC = test system: LXFL 529 NSCLC
NCI-H23 lung = test system: NCI-H23 lung
RXF 393 renal = test system: RXF 393 renal
COLO 205 colon = test system: COLO 205 colon
SF-295 CNS = test system: SF-295 CNS
KM20L2 colon = test system: KM20L2 colon
T-47D breast = test system: T-47D breast
HOP-92 NSCLC = test system: HOP-92 NSCLC
TK-10 renal = test system: TK-10 renal
MALME-3M melanoma = test system: MALME-3M melanoma

Row | Structure (SMILES) | TGI (LXFL 529 NSCLC) | TGI (NCI-H23 lung) | TGI (RXF 393 renal) | TGI (COLO 205 colon) | TGI (SF-295 CNS) | TGI (KM20L2 colon) | TGI (T-47D breast) | TGI (HOP-92 NSCLC) | TGI (TK-10 renal) | TGI (MALME-3M melanoma) | GI50 (NCI-H23 lung) | GI50 (LXFL 529 NSCLC) | GI50 (RXF 393 renal) | GI50 (SF-295 CNS) | GI50 (KM20L2 colon) | GI50 (HOP-92 NSCLC)
1 | C[S+](C)C1(c2ccccc2)C(=O)c2ccccc2C1=O | > 100 µM | > 100 µM | > 100 µM | > 100 µM | 99.2 µM | > 100 µM | 92.1 µM | > 100 µM | > 100 µM | > 100 µM | – | – | – | – | – | –
2 | O=c1cc(-c2ccccc2)[nH]c2c(F)ccc(F)c12 | > 100 µM | > 100 µM | > 100 µM | > 100 µM | > 100 µM | – | – | > 100 µM | > 100 µM | 96.3 µM | – | – | – | – | – | –
3 | C/C(=N/NC(=O)c1ccccc1Nc1ccccc1C(=O)N/N=C(\C)c1ccc(C)cc1)c1ccc(C)cc1 | – | > 100 µM | > 100 µM | > 100 µM | > 100 µM | – | > 100 µM | > 100 µM | > 100 µM | > 100 µM | – | – | – | – | – | –
4 | CCOC(=O)C1=C(C)N(c2ccc(Cl)cc2)C2(O)C=CC(=O)C3C(=O)N(c4ccccc4)C(=O)C132 (stereo not drawn) | – | 4.75 µM | 3.31 µM | 3.26 µM | 5.25 µM | – | 6.55 µM | 1.96 µM | 3.49 µM | 3.57 µM | – | – | – | – | – | –
5 | C(=N\Nc1nnc(-c2nnc(N/N=C/c3ccccc3)o2)o1)/c1ccccc1 | – | > 10 µM | > 10 µM | > 10 µM | > 10 µM | – | > 10 µM | > 10 µM | > 10 µM | > 10 µM | – | – | – | – | – | –
6 | CN(C)CC(C)(C)C(=O)/C=C/c1ccccc1 | 24.9 µM | 45.5 µM | 24.5 µM | 26.2 µM | 33.2 µM | 28.8 µM | – | 24.5 µM | 32.1 µM | 24.1 µM | – | – | – | – | – | –
7 | NS(=O)(=O)c1ccc(NS(=O)(=O)c2ccc(NC(=O)N(c3ccccc3)c3ccccc3)cc2)cc1 | – | > 100 µM | 80.9 µM | > 100 µM | > 100 µM | – | > 100 µM | > 100 µM | > 100 µM | > 100 µM | – | – | – | – | – | –
8 | CCCCCC(=O)OCC1(CO)C/C(=C/CC(C(C)C)C(C)C)C(=O)O1 (stereo not drawn) | – | > 75 µM | > 75 µM | > 75 µM | > 75 µM | – | > 75 µM | > 75 µM | > 75 µM | 65.6 µM | – | – | – | – | – | –
9 | C/C(=N/OCCC(=O)O)C1CC1 | > 100 µM | > 100 µM | > 100 µM | > 100 µM | > 100 µM | > 100 µM | – | > 100 µM | > 100 µM | > 100 µM | – | – | – | – | – | –
10 | Cc1cnc2[nH]c(-c3sccc3C)cc(=O)c2c1 | – | > 100 µM | > 28.4 µM | > 25.5 µM | > 100 µM | – | > 100 µM | > 100 µM | > 100 µM | > 100 µM | – | – | – | – | – | –
11 | CN1C(=O)[C@](C)(Cc2ccc(F)cc2)N(C(=O)OC(C)(C)C)[C@@H]1C(C)(C)C | – | > 100 µM | 59.9 µM | 39.7 µM | 50.7 µM | – | 90.1 µM | > 100 µM | > 100 µM | > 100 µM | – | – | – | – | – | –
12 | CCC(C)Cn1c(C)nc2c1C(=O)c1ccccc1C2=O (stereo not drawn) | > 100 µM | 48.4 µM | > 100 µM | 87.5 µM | > 100 µM | > 100 µM | – | 78.9 µM | > 100 µM | 73.7 µM | – | – | – | – | – | –
13 | Nc1nc(Cl)cc(NCC2CC(O)(CO)C2)n1 (stereo not drawn) | – | > 100 µM | > 100 µM | > 100 µM | > 100 µM | – | > 100 µM | > 100 µM | > 100 µM | > 100 µM | – | – | – | – | – | –
14 | Oc1cccc(-c2cn3cc(Cl)ccc3n2)c1 | – | > 100 µM | 86 µM | > 100 µM | > 100 µM | – | 48.2 µM | > 100 µM | > 100 µM | > 100 µM | – | – | – | – | – | –
15 | CC(C)c1cc(C(C)C)c(B(c2ccccc2)c2ccccc2)c(C(C)C)c1Br | – | > 100 µM | > 100 µM | > 100 µM | > 100 µM | – | > 100 µM | > 100 µM | > 100 µM | > 100 µM | – | – | – | – | – | –
16 | Cc1cc(N)c2cc(NC(=O)CCCCCCCCC(=O)Nc3ccc4nc(C)cc(N)c4c3)ccc2n1 | > 100 µM | > 100 µM | > 100 µM | > 100 µM | > 88.7 µM | > 74.3 µM | – | 80.3 µM | > 100 µM | 68.8 µM | – | – | – | – | – | –
17 | CSC(=N/N=C(\C)c1ccc(S(=O)(=O)N(C)c2ccccc2)cc1)SC | – | > 100 µM | > 100 µM | > 100 µM | > 100 µM | – | > 100 µM | > 100 µM | > 100 µM | > 100 µM | – | – | – | – | – | –
18 | O=C(O)CCC(NC(=O)/C(=C/c1ccccc1)NC(=O)c1ccccc1)C(=O)O (stereo not drawn) | – | > 100 µM | > 100 µM | > 100 µM | > 100 µM | – | > 100 µM | > 100 µM | > 100 µM | > 100 µM | – | – | – | – | – | –
19 | CCOC(=O)CCN1C(=O)c2c(NC(=O)C(=O)O)cccc2S1(=O)=O | – | > 100 µM | > 100 µM | > 100 µM | > 100 µM | – | > 100 µM | > 100 µM | > 100 µM | > 100 µM | – | – | – | – | – | –
20 | COc1cc2c3c4[n+](cc2c(OC)c1OC)CCC4CCC3 (stereo not drawn) | – | > 100 µM | > 100 µM | > 84.7 µM | > 100 µM | – | > 100 µM | > 100 µM | > 100 µM | > 65.8 µM | – | – | – | – | – | –
21 | NC(=O)c1ccc(S(=O)(=NS(=O)(=O)c2ccccc2)c2ccc(C(N)=O)cc2)cc1 | – | > 100 µM | > 100 µM | > 100 µM | > 100 µM | – | > 100 µM | > 100 µM | > 100 µM | > 100 µM | – | – | – | – | – | –
22 | O=C1CCc2c(sc3ncnc(Nc4cccc(Br)c4)c23)C1 | – | 8.24 µM | 7.51 µM | 20.8 µM | 15.3 µM | – | 6.17 µM | 9.21 µM | 14.5 µM | 4.85 µM | – | – | – | – | – | –
23 | CC(=O)OC1COC(n2c(N)c(C#N)c(-c3ccccc3)c(C#N)c2=S)C(OC(C)=O)C1OC(C)=O (stereo not drawn) | – | > 100 µM | 83.1 µM and > 100 µM | > 100 µM | > 100 µM | – | > 100 µM | > 100 µM and 92.6 µM | 94 µM | > 100 µM | 33.1 µM and 73.2 µM | – | – | – | – | –
24 | CC1C/C(=C\c2ccc(O)c(O)c2)C(=O)/C(=C/c2ccc(O)c(O)c2)C1 (stereo not drawn) | – | 12.9 µM | 14.4 µM | 32.2 µM | 27.7 µM | – | 27.8 µM | 18.7 µM | > 100 µM | 25.1 µM | – | – | – | – | – | –
25 | CC1=NNC(N)=N/C1=C\C(Sc1ccc(Cl)cc1)c1ccc(Cl)cc1Cl (stereo not drawn) | – | 29.4 µM | 50.9 µM | 50.4 µM | 52.9 µM | – | 38.8 µM | > 50.5 µM | 45.9 µM | 28.8 µM | – | – | – | – | – | –
26 | COc1cccc2c1C(=O)c1c(O)c3c(c(O)c1C2=O)C[C@@](O)(C(=O)CO)CC3OC1CC(NCCCCC(OC(C)=O)OC(C)=O)C(O)C(C)O1 (stereo partly drawn) | – | 0.00237 µM | 0.00356 µM and 0.00642 µM | – | 0.0335 µM | 0.00875 µM | – | 0.00682 µM and 0.0079 µM | > 1 µM | – | 0.000808 µM | 0.00263 µM | 0.00269 µM | 0.00227 µM | 0.000858 µM | 0.00286 µM
27 | CCOC(=O)CCC1(C(=O)O[C@@H]2C[C@H](C)CC[C@H]2C(C)C)CCCCC1=O (stereo partly drawn) | – | > 100 µM | > 100 µM | > 100 µM | > 100 µM | – | > 100 µM | > 100 µM | > 100 µM | > 100 µM | – | – | – | – | – | –
28 | CC(=O)c1nc(C#N)c(N)o1 | – | > 100 µM | > 100 µM | > 100 µM | > 100 µM | – | > 100 µM | > 100 µM | > 100 µM | > 100 µM | – | – | – | – | – | –
29 | O=C1CSC(c2cc3cc(Br)ccc3nc2Cl)N1c1ccc(F)c(Cl)c1 (stereo not drawn) | – | > 50 µM | > 50 µM | > 50 µM | > 50 µM | – | > 50 µM | > 50 µM | > 50 µM | > 50 µM | – | – | – | – | – | –
